We go through eight compounds from patent publication US10004701B2, “Methods and compositions for treating infection” (UNIVERSITY OF ROCHESTER, priority 2012, dated 2018).

Holding throughout (assay): AK assay 384-well format, Prestwick library screening
One experiment concerns K. pneumoniae. Type of experiment: cell-based, Klebsiella pneumoniae. The note with it: Klebsiella pneumoniae, 3 h, 50 μM final drug concentration.
The next experiment has as its system E. coli. Type of experiment: cell-based, Escherichia coli. The note with it: Escherichia coli, 3 h, 50 μM final drug concentration.
In the next experiment the test system is P. aeruginosa. Type of experiment: cell-based, Pseudomonas aeruginosa. The note with it: Pseudomonas aeruginosa, 3 h, 50 μM final drug concentration.
The next experiment deals with E. cloacae. Type of experiment: cell-based, Enterobacter cloacae. The note with it: Enterobacter cloacae, 3 h, 50 μM final drug concentration.
Experiment [1] deals with S. aureus strain USA300-0114. Type of experiment: cell-based, Staphylococcus aureus. The settings on record: Staphylococcus aureus, USA300, 3 h, 50 μM final drug concentration.
A further experiment has as its system E. faecium. Type of experiment: cell-based, Enterococcus faecium. The note with it: Enterococcus faecium, 3 h, 50 μM final drug concentration.
Experiment [2] has as its system A. baumannii strain 98-37-09. Type of experiment: cell-based, Acinetobacter baumannii. The settings on record: Acinetobacter baumannii, 983709, 3 h, 50 μM final drug concentration.
Setting [3] is: planktonic, cutoff for positive 3-fold increase, read-out: AK-based Prestwick Library Screening Results, K. pneumoniae (fold increase in extracellular AK activity).
[4] abbreviates: planktonic, cutoff for positive 3-fold increase, read-out: AK-based Prestwick Library Screening Results, E. coli (fold increase in extracellular AK activity).
Where [5] appears, read: planktonic, cutoff for positive 3-fold increase, read-out: AK-based Prestwick Library Screening Results, P. aeruginosa (fold increase in extracellular AK activity).
Setting [6] is: planktonic, cutoff for positive 3-fold increase, read-out: AK-based Prestwick Library Screening Results, E. cloacae (fold increase in extracellular AK activity).
Where [7] appears, read: planktonic, cutoff for positive 3-fold increase, read-out: AK-based Prestwick Library Screening Results, S. aureus (fold increase in extracellular AK activity).
Where [8] appears, read: planktonic, cutoff for positive 3-fold increase, read-out: AK-based Prestwick Library Screening Results, E. faecium (fold increase in extracellular AK activity).
Where [9] appears, read: planktonic, cutoff for positive 3-fold increase, read-out: AK-based Prestwick Library Screening Results, A. baumannii (fold increase in extracellular AK activity).
[10] abbreviates: planktonic K. pneumoniae, cutoff for positive-scoring molecules 3-fold increase, read-out: AK-based Prestwick Library Screening Results, K. pneumoniae (increase in extracellular AK activity).
Setting [11] is: planktonic E. coli, cutoff for positive-scoring molecules 3-fold increase, read-out: AK-based Prestwick Library Screening Results, E. coli (increase in extracellular AK activity).
[12] abbreviates: planktonic P. aeruginosa, cutoff for positive-scoring molecules 3-fold increase, read-out: AK-based Prestwick Library Screening Results, P. aeruginosa (increase in extracellular AK activity).
The mark [13] stands for this setting: planktonic E. cloacae, cutoff for positive-scoring molecules 3-fold increase, read-out: AK-based Prestwick Library Screening Results, E. cloacae (increase in extracellular AK activity).
Where [14] appears, read: planktonic S. aureus, cutoff for positive-scoring molecules 3-fold increase, read-out: AK-based Prestwick Library Screening Results, S. aureus (increase in extracellular AK activity).
The mark [15] stands for this setting: planktonic E. faecium, cutoff for positive-scoring molecules 3-fold increase, read-out: AK-based Prestwick Library Screening Results, E. faecium (increase in extracellular AK activity).
Setting [16] is: planktonic A. baumannii, cutoff for positive-scoring molecules 3-fold increase, read-out: AK-based Prestwick Library Screening Results, A. baumannii (increase in extracellular AK activity).

Counter-ions that a name gives are not always drawn. Like-named read-outs stand apart in the source and are kept apart here.

As for `Cc1cc(C(C)(C)C)cc(C)c1CC1=NCCN1` [Xylometazoline hydrochloride], the fold induction at 50 µM with K. pneumoniae (planktonic K. pneumoniae, 384-well, cutoff for positive-scoring molecules 3-fold increase, read-out: AK-based Prestwick Library Screening Results: K. pneumoniae (increase in extracellular AK activity)) stood at 0.9; with E. coli (planktonic E. coli, 384-well, […], read-out: AK-based Prestwick Library Screening Results: E. coli (increase in extracellular AK activity)), 1.2; in the experiment on P. aeruginosa (planktonic P. aeruginosa, 384-well, […], read-out: AK-based Prestwick Library Screening Results: P. aeruginosa (increase in extracellular AK activity)) it was 1.2; in the experiment on E. cloacae (planktonic E. cloacae, 384-well, […], read-out: AK-based Prestwick Library Screening Results: E. cloacae (increase in extracellular AK activity)), 1.4; in experiment [1] (planktonic S. aureus, 384-well, […], read-out: AK-based Prestwick Library Screening Results: S. aureus (increase in extracellular AK activity)), 1.2; with E. faecium (planktonic E. faecium, 384-well, cutoff for positive-scoring molecules 3-fold increase, read-out: AK-based Prestwick Library Screening Results: E. faecium (increase in extracellular AK activity)), 1. In addition, in experiment [2] (planktonic A. baumannii, 384-well, […], read-out: AK-based Prestwick Library Screening Results: A. baumannii (increase in extracellular AK activity)), the fold induction at 50 µM worked out at 1.3.

`CC1=C(/C=C/C(C)=C/C=C/C(C)=C\C(=O)O)C(C)(C)CCC1` [Isotretinoin]: the fold induction at 50 µM was 0.6 in the experiment with K. pneumoniae (384-well format, cutoff for positive-scoring molecules 3-fold increase, read-out: AK-based Prestwick Library Screening Results, K. pneumoniae (increase in extracellular AK activity)); 0.7 with E. coli (384-well format, cutoff for positive-scoring molecules 3-fold increase, read-out: AK-based Prestwick Library Screening Results, E. coli (increase in extracellular AK activity)); 0.8 in the experiment on P. aeruginosa (384-well format, cutoff for positive-scoring molecules 3-fold increase, read-out: AK-based Prestwick Library Screening Results, P. aeruginosa (increase in extracellular AK activity)); 0.9 in the experiment on E. cloacae (384-well format, cutoff for positive-scoring molecules 3-fold increase, read-out: AK-based Prestwick Library Screening Results, E. cloacae (increase in extracellular AK activity)); 0.6 in experiment [1] (384-well format, cutoff for positive-scoring molecules 3-fold increase, read-out: AK-based Prestwick Library Screening Results, S. aureus (increase in extracellular AK activity)); 1 with E. faecium (384-well format, cutoff for positive-scoring molecules 3-fold increase, read-out: AK-based Prestwick Library Screening Results, E. faecium (increase in extracellular AK activity)). In experiment [2] (384-well format, cutoff for positive-scoring molecules 3-fold increase, read-out: AK-based Prestwick Library Screening Results, A. baumannii (increase in extracellular AK activity)), the fold induction at 50 µM came out at 0.7.

In the case of `C=CCN1CCCC1CNC(=O)c1cc2[nH]nnc2cc1OC` (centres unmarked) [Alizapride HCl], the fold induction at 50 µM in the experiment on K. pneumoniae (setting [3]) was found to be 0.9; in the experiment with E. coli (setting [4]), 1; with P. aeruginosa (setting [5]), 1.1; in the experiment on E. cloacae (setting [6]), 1.4; in experiment [1] (setting [7]), 1; in the experiment with E. faecium (setting [8]) it was 1. For the same compound, the fold induction at 50 µM in experiment [2] (setting [9]) came to 1.1.

Take `CC(=O)OCC(=O)NCCCOc1cccc(CN2CCCCC2)c1` [Roxatidine Acetate HCl]: the fold induction at 50 µM with K. pneumoniae (setting [10]) turned out to be 0.7; in the experiment with E. coli (setting [11]), 0.8; with P. aeruginosa (setting [12]), 0.7; with E. cloacae (setting [13]), 0.9; in experiment [1] (setting [14]) it was 0.6; with E. faecium (setting [15]) it was 1. Besides, the fold induction at 50 µM in experiment [2] (setting [16]) turned out to be 0.8.

Take `c1coc(CNc2ncnc3nc[nH]c23)c1` [Compound 6-Furfurylaminopurine, 6-Furfurylaminopurine]: the fold induction at 50 µM with K. pneumoniae (planktonic, cutoff for positive-scoring molecules 3-fold increase, read-out: AK-based Prestwick Library Screening Results, K. pneumoniae (fold increase in extracellular AK activity)) was found to be 0.5; in the experiment on E. coli (planktonic, cutoff for positive-scoring molecules 3-fold increase, read-out: AK-based Prestwick Library Screening Results, E. coli (fold increase in extracellular AK activity)) it was 0.7; in the experiment with P. aeruginosa (planktonic, cutoff for positive-scoring molecules 3-fold increase, read-out: AK-based Prestwick Library Screening Results, P. aeruginosa (fold increase in extracellular AK activity)) it was 0.7; in the experiment with E. cloacae (planktonic, cutoff for positive-scoring molecules 3-fold increase, read-out: AK-based Prestwick Library Screening Results, E. cloacae (fold increase in extracellular AK activity)), 0.9; in experiment [1] (planktonic, cutoff for positive-scoring molecules 3-fold increase, read-out: AK-based Prestwick Library Screening Results, S. aureus (fold increase in extracellular AK activity)), 0.6; in the experiment with E. faecium (planktonic, cutoff for positive-scoring molecules 3-fold increase, read-out: AK-based Prestwick Library Screening Results, E. faecium (fold increase in extracellular AK activity)) it was 0.9. Moreover, the fold induction at 50 µM in experiment [2] (planktonic, cutoff for positive-scoring molecules 3-fold increase, read-out: AK-based Prestwick Library Screening Results, A. baumannii (fold increase in extracellular AK activity)) was found to be 0.7.

With `OC(CCN1CCCCC1)(c1ccccc1)C1CC2C=CC1C2` (centres unmarked) [Biperiden hydrochloride], the fold induction at 50 µM with K. pneumoniae (setting [10]) amounted to 0.8; with E. coli (setting [11]), 1; in the experiment on P. aeruginosa (setting [12]), 0.8; with E. cloacae (setting [13]), 0.9; in experiment [1] (setting [14]), 0.6; in the experiment on E. faecium (setting [15]), 0.9. Further, the fold induction at 50 µM in experiment [2] (setting [16]) came to 0.8.

For the compound `Cc1cc2c(C(C)C)c(O)c(O)c(C=O)c2c(O)c1-c1c(C)cc2c(C(C)C)c(O)c(O)c(C=O)c2c1O` [Gossypol], the fold induction at 50 µM in the experiment with K. pneumoniae (planktonic, […], read-out: AK-based Prestwick Library Screening Results, K. pneumoniae (fold increase in extracellular AK activity)) came out at 0.3; in the experiment on E. coli (planktonic, […], read-out: AK-based Prestwick Library Screening Results, E. coli (fold increase in extracellular AK activity)), 0.6; in the experiment with P. aeruginosa (planktonic, […], read-out: AK-based Prestwick Library Screening Results, P. aeruginosa (fold increase in extracellular AK activity)), 0.5; with E. cloacae (planktonic, […], read-out: AK-based Prestwick Library Screening Results, E. cloacae (fold increase in extracellular AK activity)), 1.5; in experiment [1] (planktonic, […], read-out: AK-based Prestwick Library Screening Results, S. aureus (fold increase in extracellular AK activity)) it was 0.2; in the experiment with E. faecium (planktonic, […], read-out: AK-based Prestwick Library Screening Results, E. faecium (fold increase in extracellular AK activity)), 1.3. Further, in experiment [2] (planktonic, […], read-out: AK-based Prestwick Library Screening Results, A. baumannii (fold increase in extracellular AK activity)), the fold induction at 50 µM turned out to be 0.4.

In the case of `Nc1nc2ncc(CNc3ccc(C(=O)N[C@@H](CCC(=O)O)C(=O)O)cc3)nc2c(=O)[nH]1` [Folic acid], the fold induction at 50 µM in the experiment on K. pneumoniae (setting [3]) came out at 1; in the experiment with E. coli (setting [4]), 1.3; with P. aeruginosa (setting [5]), 1.1; in the experiment on E. cloacae (setting [6]) it was 1.3; in experiment [1] (setting [7]), 1; with E. faecium (setting [8]), 1.1. The fold induction at 50 µM in experiment [2] (setting [9]) worked out at 1.3.
